The values that follow come from ChEMBL document CHEMBL1153619, “The role of phenolic hydroxy groups in the free radical scavenging activity of betalains” (J Nat Prod, 2009).

Series [1] in a line: Antioxidant activity assessed as Trolox molar equivalence for reduction of Fe(III) at pH 3.6 by ferric reducing antioxidant power assay. The series is classed as functional.
Series [2] in a line: ABTS radical scavenging activity assessed as Trolox equivalent antioxidant capacity index at pH 7 by spectrophotometry. It is filed as physicochemical.

On to `O=C(O)C1=C/C(=C\C=N/CCc2ccccc2)C[C@@H](C(=O)O)N1`, for which the Activity is 1.1 in series [1] and 2.3 in series [2].

Regarding `CCC/N=C\C=C1/C=C(C(=O)O)N[C@H](C(=O)O)C1`, the Activity in series [1] turned out to be 1.1.

For `O=C(O)C1=C/C(=C\C=N/CCc2cccc(O)c2)C[C@@H](C(=O)O)N1`, the Activity in series [1] came out at 2.7; in series [2], 4.1.

Consider `O=C(O)C1=C/C(=C\C=N/CCc2ccc(O)cc2)C[C@@H](C(=O)O)N1`, for which the Activity in series [1] amounted to 1.1; in series [2] it was 4.

On to `Oc1ccc(/C=C/c2cc(O)cc(O)c2)cc1` [RESVERATROL], for which the Activity in series [2] is listed as 2.7.

Consider `O=C(O[C@@H]1Cc2c(O)cc(O)cc2O[C@@H]1c1cc(O)c(O)c(O)c1)c1cc(O)c(O)c(O)c1` [EPIGALOCATECHIN GALLATE], for which, in series [2], the Activity turned out to be 4.8.

For `O=C(O)C1=C/C(=C\C=N/CCc2ccc(O)c(O)c2)C[C@@H](C(=O)O)N1`, in series [1], the Activity stood at 3.3.
